Laboratory results from ChEMBL document CHEMBL1126830, “Cholecystokinin peptidomimetics as selective CCK-B antagonists: design, synthesis, and in vitro and in vivo biochemical properties” (J Med Chem, 1993).
pKi: −log10 of the molar value.

What was measured:
[1] = biological target: T1, Cholecystokinin receptor type A (Cavia porcellus, UniProt Q63931); test: Tested for inhibition of [3H]-pCCK-8 specific binding to cholecystokinin type A receptor in guinea pig pancreatic membranes; assay type: cell membranes
T1 sequence (Q63931 whole entry): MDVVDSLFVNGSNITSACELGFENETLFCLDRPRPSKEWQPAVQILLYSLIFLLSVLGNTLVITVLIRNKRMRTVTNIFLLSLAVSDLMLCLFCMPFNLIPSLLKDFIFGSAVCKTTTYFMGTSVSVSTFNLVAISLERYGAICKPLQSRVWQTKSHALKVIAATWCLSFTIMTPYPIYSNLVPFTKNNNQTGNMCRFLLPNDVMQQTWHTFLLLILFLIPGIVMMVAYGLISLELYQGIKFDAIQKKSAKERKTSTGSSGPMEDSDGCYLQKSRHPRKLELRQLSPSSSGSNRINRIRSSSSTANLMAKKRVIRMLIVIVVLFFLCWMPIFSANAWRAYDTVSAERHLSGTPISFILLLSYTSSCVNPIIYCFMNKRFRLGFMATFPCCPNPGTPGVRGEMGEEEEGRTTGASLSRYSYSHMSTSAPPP

[2] = biological target: T2, Cholecystokinin receptor type A (Rattus norvegicus, UniProt P30551); test: Tested for binding affinity towards cholecystokinin type A receptor in rat pancreas by displacement of [3H]pCCK-8 radioligand
T2 sequence (P30551 whole entry): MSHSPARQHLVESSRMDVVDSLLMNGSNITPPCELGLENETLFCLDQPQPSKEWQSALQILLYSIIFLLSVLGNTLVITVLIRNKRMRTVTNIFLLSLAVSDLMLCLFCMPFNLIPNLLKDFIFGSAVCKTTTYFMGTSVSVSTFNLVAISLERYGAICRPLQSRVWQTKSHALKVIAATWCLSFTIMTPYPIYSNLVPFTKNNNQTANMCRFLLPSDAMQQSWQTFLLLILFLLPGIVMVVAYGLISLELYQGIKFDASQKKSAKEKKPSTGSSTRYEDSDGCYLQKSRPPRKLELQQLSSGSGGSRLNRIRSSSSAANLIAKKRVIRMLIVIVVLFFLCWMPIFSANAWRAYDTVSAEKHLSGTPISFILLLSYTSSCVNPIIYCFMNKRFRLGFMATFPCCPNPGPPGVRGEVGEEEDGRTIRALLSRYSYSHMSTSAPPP

[3] = biological target: T3, Gastrin/cholecystokinin type B receptor (Rattus norvegicus, UniProt P30553); test: Tested for binding affinity towards cholecystokinin type B receptor in rat […] by displacement of [3H]pCCK-8 radioligand
T3 sequence (P30553 whole entry): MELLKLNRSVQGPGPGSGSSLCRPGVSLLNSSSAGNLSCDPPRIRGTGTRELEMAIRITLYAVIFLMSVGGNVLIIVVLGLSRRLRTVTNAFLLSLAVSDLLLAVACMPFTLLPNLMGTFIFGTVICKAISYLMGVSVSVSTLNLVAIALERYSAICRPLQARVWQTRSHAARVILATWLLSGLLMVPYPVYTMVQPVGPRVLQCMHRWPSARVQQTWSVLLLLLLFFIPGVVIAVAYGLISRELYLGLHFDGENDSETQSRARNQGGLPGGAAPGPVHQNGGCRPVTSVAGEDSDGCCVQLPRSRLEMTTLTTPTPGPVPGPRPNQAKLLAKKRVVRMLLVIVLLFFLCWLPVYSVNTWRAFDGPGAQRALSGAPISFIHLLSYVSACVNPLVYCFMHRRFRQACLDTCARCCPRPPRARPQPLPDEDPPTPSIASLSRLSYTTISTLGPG

[4] = biological target: T4, Gastrin/cholecystokinin type B receptor (Mus musculus, UniProt P56481); test: Tested for binding affinity towards cholecystokinin type B receptor in mouse brain by displacement of [3H]pBC264 radioligand (icv); assay type: tissue-based
T4 sequence (P56481 whole entry): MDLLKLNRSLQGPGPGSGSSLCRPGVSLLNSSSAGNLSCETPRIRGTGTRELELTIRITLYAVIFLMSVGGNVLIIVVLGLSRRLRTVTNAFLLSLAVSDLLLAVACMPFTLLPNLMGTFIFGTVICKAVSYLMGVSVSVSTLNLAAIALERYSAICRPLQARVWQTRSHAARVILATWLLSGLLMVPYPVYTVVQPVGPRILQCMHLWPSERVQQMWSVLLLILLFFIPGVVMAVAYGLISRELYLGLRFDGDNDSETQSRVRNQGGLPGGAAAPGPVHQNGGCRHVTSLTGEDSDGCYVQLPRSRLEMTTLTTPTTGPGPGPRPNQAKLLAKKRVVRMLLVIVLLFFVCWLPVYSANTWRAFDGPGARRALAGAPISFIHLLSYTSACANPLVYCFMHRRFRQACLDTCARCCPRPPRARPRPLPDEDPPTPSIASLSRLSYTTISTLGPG

SMILES	pKi [1]	also measured
CC(Cc1c[nH]c2ccccc12)(NC(=O)NC(c1ccccc1)(c1ccccc1)c1ccccc1)C(=O)NCCc1ccccc1 (stereo not drawn)	5.75	
CC(Cc1c[nH]c2ccccc12)(NC(=O)OC1[C@H]2C[C@@H]3C[C@@H](C[C@H]1C3)C2)C(=O)NCCc1ccccc1 (stereo partly drawn)	5.72	
CC(Cc1c[nH]c2ccccc12)(NC(=O)OC1[C@H]2C[C@@H]3C[C@@H](C[C@H]1C3)C2)C(=O)NCCc1ccc(Cl)c(Cl)c1 (stereo partly drawn)	5.81	
CC(Cc1c[nH]c2ccccc12)(NC(=O)OC1[C@H]2C[C@@H]3C[C@@H](C[C@H]1C3)C2)C(=O)N(CCc1ccccc1)CC(=O)O (stereo partly drawn)	5.82	pKi [2]: 6.27
CC(Cc1c[nH]c2ccccc12)(NC(=O)OC1[C@H]2C[C@@H]3C[C@@H](C[C@H]1C3)C2)C(=O)Nc1ccccc1 (stereo partly drawn)	5.22	
CC(Cc1c[nH]c2ccccc12)(C(=O)OC1[C@H]2C[C@@H]3C[C@@H](C[C@H]1C3)C2)C(=O)N(CCc1ccc(Cl)cc1Cl)CC(=O)O (stereo partly drawn)	5.52	pKi [3]: 7.55; pKi [2]: 5.91; pKi [4]: 7.85
CC(Cc1ccccc1)(NC(=O)OC1[C@H]2C[C@@H]3C[C@@H](C[C@H]1C3)C2)C(=O)N(CCc1ccccc1)CC(=O)O (stereo partly drawn)	5.42	
CC(Cc1c[nH]c2ccccc12)(NC(=O)Nc1ccc(Cl)cc1)C(=O)NCCc1ccccc1 (stereo not drawn)	5.20	
CC(Cc1c[nH]c2ccccc12)(NC(=O)OC1[C@H]2C[C@@H]3C[C@@H](C[C@H]1C3)C2)C(=O)NCCc1ccc(Cl)cc1Cl (stereo partly drawn)	5.50	
CC(Cc1c[nH]c2ccccc12)(NC(=O)OC1[C@H]2C[C@@H]3C[C@@H](C[C@H]1C3)C2)C(=O)N(CCc1ccc(Cl)cc1Cl)CC(=O)O (stereo partly drawn)	5.98	
CC(Cc1ccc(Br)cc1)(NC(=O)OC1[C@H]2C[C@@H]3C[C@@H](C[C@H]1C3)C2)C(=O)N(CCc1ccccc1)CC(=O)O (stereo partly drawn)	5.47	
CC(Cc1c[nH]c2ccccc12)(NC(=O)OC1[C@H]2C[C@@H]3C[C@@H](C[C@H]1C3)C2)C(=O)NCCc1ccc([N+](=O)[O-])cc1 (stereo partly drawn)	5.63	
COc1ccc(CCNC(=O)C(C)(Cc2c[nH]c3ccccc23)NC(=O)OC2[C@H]3C[C@@H]4C[C@@H](C[C@H]2C4)C3)cc1 (stereo partly drawn)	5.51	
CC(Cc1c[nH]c2ccccc12)(NC(=O)OC1[C@H]2C[C@@H]3C[C@@H](C[C@H]1C3)C2)C(=O)N(CCC(=O)O)CCc1ccccc1 (stereo partly drawn)	5.88	
CC(Cc1c[nH]c2ccccc12)(NC(=O)OC1[C@H]2C[C@@H]3C[C@@H](C[C@H]1C3)C2)C(=O)NCCc1ccc(Br)cc1 (stereo partly drawn)	5.67	
CC(Cc1c[nH]c2ccccc12)(NC(=O)OC1[C@H]2C[C@@H]3C[C@@H](C[C@H]1C3)C2)C(=O)NCCc1ccc(Cl)cc1 (stereo partly drawn)	5.79	
CC(Cc1c[nH]c2ccccc12)(NC(=O)OC1[C@H]2C[C@@H]3C[C@@H](C[C@H]1C3)C2)C(=O)NCCc1cccc2ccccc12 (stereo partly drawn)	5.63	
O=C(O)CN(CCc1ccccc1)C(=O)C(Cc1c[nH]c2ccccc12)NC(=O)OC1[C@H]2C[C@@H]3C[C@@H](C[C@H]1C3)C2 (stereo partly drawn)	5.55	
CC(Cc1c[nH]c2ccccc12)(NC(=O)OC1[C@H]2C[C@@H]3C[C@@H](C[C@H]1C3)C2)C(=O)Nc1ccc2ccccc2c1 (stereo partly drawn)	5.63	
CC(Cc1c[nH]c2ccccc12)(NC(=O)OC1[C@H]2C[C@@H]3C[C@@H](C[C@H]1C3)C2)C(=O)NCCCc1ccccc1 (stereo partly drawn)	5.37	
CC(Cc1c[nH]c2ccccc12)(NC(=O)OC1[C@H]2C[C@@H]3C[C@@H](C[C@H]1C3)C2)C(=O)NCC(=O)O (stereo partly drawn)	< 5.40	
CC(Cc1cccc2ccccc12)(NC(=O)OC1[C@H]2C[C@@H]3C[C@@H](C[C@H]1C3)C2)C(=O)N(CCc1ccccc1)CC(=O)O (stereo partly drawn)	5.70	
CC(Cc1c[nH]c2ccccc12)(NC(=O)Nc1ccc2ccccc2c1)C(=O)NCCc1ccccc1 (stereo not drawn)	6.11	
CC(Cc1c[nH]c2ccccc12)(NC(=O)OC1[C@H]2C[C@@H]3C[C@@H](C[C@H]1C3)C2)C(=O)NCc1ccccc1 (stereo partly drawn)	5.39	
CC(Cc1ccc2ccccc2c1)(NC(=O)OC1[C@H]2C[C@@H]3C[C@@H](C[C@H]1C3)C2)C(=O)N(CCc1ccccc1)CC(=O)O (stereo partly drawn)	7.15	
CC(Cc1c[nH]c2ccccc12)(NC(=O)OC1[C@H]2C[C@@H]3C[C@@H](C[C@H]1C3)C2)C(=O)N(CCc1ccc(Cl)cc1)CC(=O)O (stereo in doubt; 26)	5.95	pKi [2]: 5.87
CC(Cc1c[nH]c2ccccc12)(NC(=O)OC1[C@H]2C[C@@H]3C[C@@H](C[C@H]1C3)C2)C(=O)N(CCc1ccc(Cl)cc1)CC(=O)O (stereo in doubt; 26A)	5.97	pKi [2]: 5.91
